Reference: patent US9657033B2, “Tetrahydronaphthyridine and related bicyclic compounds for inhibition of RORγ activity and the treatment of disease” (Merck Sharp & Dohme Corp., priority 2012, dated 2017)
pEC50: −log10 of the molar value.

Columns and labels:
RORγ-LBD [1] = molecular target: T1, RORγ-LBD (Homo sapiens (Human), UniProt P51449); assay: RORγ-Ligand Binding Domain (LBD) TR-FRET Assay Protocol II; format: biochemical; conditions: purified RORγ-LBD, SRC1 peptide, overnight at 4° C.
Description: Part II—Procedures for RORγ-Ligand Binding Domain TR-FRET Assay Protocol II
HIS-tagged RORγ-LBD protein was expressed in SF9 cells using a baculovirus expression system. The RORγ-LBD protein was purified by […]. Separately, SF9 cells not expressing recombinant protein were lysed in TBS buffer (25 mM Tris, pH 8.0, 150 mM NaCl) under sonication. The lysate was added to the purified RORγ-LBD in a volume equivalent of 0.75 μL lysate (from 30,000 SF9 cells) per 75 femtomol of RORγ-LBD protein. The resulting mixture was diluted in assay buffer (50 mM Tris pH 7.0, 50 mM KCl, 1 mM EDTA, 0.1 mM DTT, 0.01% BSA) to obtain RORγ-LBD protein at a final concentration of 3 nM.
Compounds to be tested were injected to the assay plate using Acoustic Droplet Ejection technology by Echo 550 liquid handler (Labcyte, Calif.).
A stock of biotinylated-LXXLL peptide from coactivator SRC1 (Biotin-[…]) was prepared in assay buffer and added to each well (100 nM final concentration). A solution of Europium tagged anti-HIS antibody (1.25 nM final concentration) and APC-conjugated streptavidin (8 nM final concentration) were also added to each well.
The final assay mixture was incubated overnight at 4° C., and the fluorescence signal was measured on an Envision plate reader: (Excitation filter=340 nm; APC emission=665 nm; Europium emission=615 nm; dichroic mirror=D400/D630; delay time=100 μs, integration time=200 μs). The EC50 value for test compounds was calculated from the quotient of the fluorescence signal at 665 nm divided by the fluorescence signal at 615 nm

RORγ-LBD [2] = molecular target: T1, RORγ-LBD; assay: RORγ-Ligand Binding Domain (LBD) TR-FRET Assay Protocol I; format: biochemical; conditions: RORγ-LBD lysate from SF9 cells, SRC1-2 peptide
Description: Part I—Procedures for RORγ-Ligand Binding Domain TR-FRET Assay Protocol I
Recombinant,HIS-tagged RORγ-LBD was expressed in SF9 cells using a baculovirus expression system. Cells were lysed and the lysate was used as a source for RORγ-LBD for the assay. A 1:80 dilution of RORγ-LBD lysate in assay buffer (25 mM HEPES pH 7.0, 100 mM NaCl, 0.01% Tween, 0.1% BSA) was prepared and 5 μL was added to each well (RORγ-LBD final concentration ˜3 nM). Control wells received lysate from SF9 cells not expressing RORγ-LBD.
Compounds to be tested were diluted to 100× final test concentration in DMSO and further diluted to 4× final test concentration using assay buffer to provide the test compound mixture. An aliquot (5 μL) of the test compound mixture was added to each well.
A 4× stock of biotinylated-LXXLL peptide from SRC1-2 (Biotin-[…]) was prepared in assay buffer and a 5 μL aliquot added to each well (450 nM final concentration). A 4× solution of europium tagged anti-HIS antibody (2 nM final concentration) and APC conjugated streptavidin (60 nM final concentration) were prepared and a 5 μL aliquot added to each well.
The final assay mixture was incubated for 4 hours to overnight, and the fluorescence signal was measured on an Envision plate reader: (Excitation filter=340 nm; APC emission=665 nm; Europium emission=615 nm; dichroic mirror=D400/D630; delay time=100 μs, integration time=200 μs).
EC50 values for test compounds were calculated from the quotient of the fluorescence signal at 665 nm divided by the fluorescence signal at 615 nm using GraphPad Prism software

T1 sequence (P51449 269-508): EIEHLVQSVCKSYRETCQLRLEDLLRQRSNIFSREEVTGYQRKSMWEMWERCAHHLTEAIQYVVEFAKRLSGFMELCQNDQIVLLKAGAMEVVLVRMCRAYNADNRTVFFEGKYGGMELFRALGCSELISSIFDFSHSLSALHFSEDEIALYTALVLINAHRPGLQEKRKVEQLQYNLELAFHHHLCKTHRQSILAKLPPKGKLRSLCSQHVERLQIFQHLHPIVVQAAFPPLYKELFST

Compound CC(=O)NC[C@H]1CN(S(=O)(=O)c2cccc(C)c2)c2cc(NC(=O)c3c(F)cccc3Cl)cnc2O1 [Compound 16, (S)-N-(3-(acetamidomethyl)-1-(m-tolylsulfonyl)-2,3-dihydro-1H-pyrido[2,3-b][1,4]oxazin-7-yl)-2-chloro-6-fluorobenzamide] has a pEC50 (RORγ-LBD [1]) of 6.91 and a pEC50 (RORγ-LBD [2]) of 6.47.
With CC(=O)NC[C@H]1CN(S(=O)(=O)c2cccc(C)c2)c2cc(NC(=O)[C@@H](C)c3ccccc3)cnc2O1 [Compound 17, (S)-N-((S)-3-(Acetamidomethyl)-1-(m-tolylsulfonyl)-2,3-dihydro-1H-pyrido[2,3-b][1,4]oxazin-7-yl)-2-phenylpropanamide] the pEC50 (RORγ-LBD [1]) was 6.97 and the pEC50 (RORγ-LBD [2]) was 6.12.
Work on CC1COc2ncc(NC(=O)c3c(F)cccc3Cl)cc2N1S(=O)(=O)c1cccc(C#N)c1 (stereo not drawn) [Compound 20] yielded a pEC50 (RORγ-LBD [1]) of 6.97 and a pEC50 (RORγ-LBD [2]) of 6.41.
In the case of Cc1cccc(S(=O)(=O)N2C[C@H](C)Oc3ncc(NC(=O)c4c(F)cccc4C(F)(F)F)cc32)c1 [Compound 24], the pEC50 (RORγ-LBD [1]) was 8.22 and the pEC50 (RORγ-LBD [2]) was 6.88.
In the case of C[C@H]1CN(S(=O)(=O)c2cccc(C#N)c2)c2cc(NC(=O)c3c(F)cccc3Cl)cnc2O1 [Compound 25], the pEC50 (RORγ-LBD [1]) was 7.15 and the pEC50 (RORγ-LBD [2]) was 5.99.
With C[C@H]1CN(S(=O)(=O)c2ccc(F)cc2)c2cc(NC(=O)c3c(F)cccc3Cl)cnc2O1 [Compound 26] the pEC50 (RORγ-LBD [1]) was 7.20 and the pEC50 (RORγ-LBD [2]) was 6.08.
C[C@H]1CN(S(=O)(=O)c2cccc(C3CC3)c2)c2cc(NC(=O)c3c(F)cccc3Cl)cnc2O1 [Compound 27] showed a pEC50 (RORγ-LBD [1]) of 7.96 and a pEC50 (RORγ-LBD [2]) of 7.70.
Work on Cc1cccc(S(=O)(=O)N2C[C@H](C)Oc3ncc(NC(=O)[C@@H](C)c4ccccc4)cc32)c1 [Compound 28] yielded a pEC50 (RORγ-LBD [1]) of 7.14 and a pEC50 (RORγ-LBD [2]) of 6.09.
For C[C@H](C(=O)Nc1cnc2c(c1)N(S(=O)(=O)c1ccc(F)cc1)C[C@H](C)O2)c1ccccc1 [Compound 29], the pEC50 (RORγ-LBD [1]) was 6.41 and the pEC50 (RORγ-LBD [2]) was 5.52.
In the case of O=C(Nc1cnc2c(c1)N(S(=O)(=O)c1ccc(F)cc1)CCC2)c1c(F)cccc1F [Compound 36, 2,6-difluoro-N-(5-(4-fluorobenzenesulfonyl)-5,6,7,8-tetrahydro-[1,5]naphthyridin-3-yl)benzamide], the pEC50 (RORγ-LBD [1]) was 6.69 and the pEC50 (RORγ-LBD [2]) was 6.15.
With Cc1cccc(S(=O)(=O)N2CCCc3ncc(NC(=O)c4c(F)cccc4Cl)cc32)c1 [Compound 37, 2-chloro-6-fluoro-N-(5-(m-tolylsulfonyl)-5,6,7,8-tetrahydro-1,5-naphthyridin-3-yl)benzamide] the pEC50 (RORγ-LBD [1]) was 7.80 and the pEC50 (RORγ-LBD [2]) was 7.28.
Work on Cc1cccc(S(=O)(=O)N2CCCc3ncc(NC(=O)[C@@H](C)c4ccccc4)cc32)c1 [Compound 38, (S)-2-phenyl-N-(5-(m-tolylsulfonyl)-5,6,7,8-tetrahydro-1,5-naphthyridin-3-yl)propanamide] yielded a pEC50 (RORγ-LBD [1]) of 7.21 and a pEC50 (RORγ-LBD [2]) of 6.38.
